Several values for one entry are separate records, joined by “and”; a condition that tells them apart may be missing. Identical values can stand only once.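 The compound was tested at five concentrations on cells cultured in 96-well plates, with a 48-hour exposure period. GI50 marks 50% less growth. TGI is the concentration that stops growth completely.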
How the values were obtained:
Experiment in all cases: NCI tumour cell line growth inhibition, 48 h
MDA-N = system: MDA-N
DLD-1 colon = system: DLD-1 colon
DMS 273 small cell lung = system: DMS 273 small cell lung
HOP-18 NSCLC = system: HOP-18 NSCLC
KM20L2 colon = system: KM20L2 colon
LXFL 529 NSCLC = system: LXFL 529 NSCLC
M19-MEL melanoma = system: M19-MEL melanoma
RXF-631 renal = system: RXF-631 renal
XF 498 CNS = system: XF 498 CNS
P388 leukemia = system: P388 leukemia
SN12K1 renal = system: SN12K1 renal

Compound | TGI (MDA-N) | TGI (DLD-1 colon) | TGI (DMS 273 small cell lung) | TGI (HOP-18 NSCLC) | TGI (KM20L2 colon) | TGI (LXFL 529 NSCLC) [µM] | TGI (M19-MEL melanoma) | TGI (RXF-631 renal) [µM] | TGI (XF 498 CNS) | also measured
COc1cc2oc3c(c(=O)c2c(O)c1/C=C/C(C)C)C(C=C(C)C)Oc1cc(O)ccc1-3 (stereo not drawn) | 31.9 µM |  |  |  |  |  |  |  |  | 
CCC1(CN(C)C)CC/C(=C\c2ccc(OC)c(OC)c2)C1=O (stereo not drawn) |  | > 100 µM | > 100 µM | > 100 µM | > 100 µM | > 100 | > 100 µM | > 100 | > 100 µM | 
CCc1nc(N)nc(N)c1-c1ccc(Cl)c(N=[N+]=[N-])c1 | 53.9 µM and > 84.9 µM | > 100 µM |  | > 100 µM | > 100 µM | > 100 | > 100 µM |  | 88.1 µM | GI50 (MDA-N): 0.812 µM and 5.03 µM
O=c1c2cc3c(cc2c2cccc4c2n1CCC4)OCO3 |  | > 100 µM | > 100 µM | > 100 µM | > 100 µM | > 100 | > 100 µM |  |  | 
COc1cc2ccnc3c(=C(SC)SC)c(=O)c(c1OC)c23 |  | 29.5 µM | 30.4 µM | 26.7 µM | 32.6 µM | 16.5 | 30.2 µM | 28.9 |  | 
O=c1cccc(-c2cccc(=O)[nH]2)[nH]1 |  | > 100 µM | > 100 µM | > 100 µM |  | > 100 | > 100 µM | > 100 |  | 
N#Cc1cccc(C=NC23CC4CC(CC(C4)C2)C3)c1 |  |  | > 100 µM |  | > 100 µM |  | > 100 µM |  |  | 
O=[N+]([O-])c1cc2no[n+]([O-])c2cc1N1CCCCC1 | 7.06 µM |  |  |  |  |  |  |  |  | 
Cc1ccc(C2NC(=O)c3ccccc3N2)c(C)c1 (stereo not drawn) | 0.701 µM |  |  |  |  |  |  |  |  | 
OCCN(CCO)c1cccc(N(CCO)CCO)n1 |  | > 100 µM | > 100 µM |  | > 100 µM | > 100 | > 100 µM | > 100 | > 100 µM | 
COc1ccc2c(c1)-c1nn(CCCN(C)C)c3ccc([N+](=O)[O-])c(c13)N2 | 2.53 µM and 3.61 µM | 5.24 µM and 6.12 µM | 1.86 µM and 4.99 µM | 13.6 µM and 21 µM | 4.98 µM and 10.9 µM |  | 3.39 µM and 11.8 µM |  | 2.34 µM and 16.2 µM | GI50 (KM20L2 colon): 0.0855 µM and 0.49 µM; GI50 (M19-MEL melanoma): 0.255 µM and 0.545 µM; GI50 (MDA-N): 0.159 µM and 0.503 µM; TGI (P388 leukemia): 0.666 µM; TGI (SN12K1 renal): 0.682 µM; GI50 (XF 498 CNS): 0.443 µM and 2.91 µM
COc1cccc(SSc2cccc(OC)c2C(=O)O)c1C(=O)O |  | > 100 µM | > 100 µM | > 100 µM | > 100 µM | > 100 | > 100 µM | > 100 | > 100 µM | 
O=C(CCCN1CCC(C(O)c2ccc(F)cc2)CC1)c1ccc(F)cc1 (stereo not drawn) | 116 µM | 120 µM | 118 µM | 142 µM | 96 µM |  | 115 µM |  | 15.1 µM | TGI (P388 leukemia): 119 µM; TGI (SN12K1 renal): 108 µM
Cc1ccc(S(=O)(=O)N/N=C/C(C)C)cc1 |  | > 100 µM | > 100 µM | > 100 µM | > 100 µM | > 100 | > 100 µM | > 100 |  | 
O=C(CC1C=Cc2ccccc2N1C(=O)c1ccccc1)c1ccccc1 (stereo not drawn) | 39 µM |  |  |  |  |  |  |  |  | 
CCC(C)C(=O)OCC(=O)c1ccc(-c2ccccc2)cc1 (stereo not drawn) | > 100 µM |  |  |  |  |  |  |  |  | 
CC(=O)NC(C=O)C(O[C@H](C)C(=O)NC(C)C(=O)NC(CCC(N)=O)C(=O)OCc1ccccc1)C(O)C(O)COC(=O)CCNc1c2ccccc2nc2cccc([N+](=O)[O-])c12 (stereo partly drawn) |  | 16.5 µM | 12 µM | > 100 µM | 5.58 µM | 3.58 | 4.02 µM |  | 3.71 µM | 
CC(=O)OC1=CC2(OC(C)=O)CC(C)(C)C1C1C(=O)C=CC(=O)C12 (stereo not drawn) | > 100 µM | > 100 µM | > 100 µM |  | > 100 µM | > 100 | > 100 µM | > 100 | > 100 µM | 
c1ccc(OCc2nnc3n2N=C(c2ccccc2)CS3)cc1 |  | > 100 µM | > 100 µM |  |  | > 100 | > 100 µM |  | > 100 µM | 
Cc1ccc(NC(=O)CCc2n[nH]c(=S)o2)cc1 |  | > 100 µM | > 100 µM | > 100 µM | > 100 µM | > 100 | > 100 µM | > 100 | > 100 µM | 

Compound | TGI (MDA-N) | TGI (DLD-1 colon) | TGI (DMS 273 small cell lung) | TGI (HOP-18 NSCLC) | TGI (KM20L2 colon) | TGI (LXFL 529 NSCLC) [µM] | TGI (M19-MEL melanoma) | TGI (RXF-631 renal) [µM] | TGI (XF 498 CNS) | also measured
CC(=O)c1ccc(NC(=O)COC(=O)c2cccc3c(=O)c4ccccc4[nH]c23)cc1 |  | > 100 µM |  | > 100 µM | > 100 µM | > 100 | > 100 µM | > 100 | 55.5 µM | 
CC(=O)Nc1n[n+]([O-])c2cc(C)ccc2[n+]1[O-] | 14.9 µM |  |  |  |  |  |  |  |  | 
CCCCCCCCCCCc1c(O)c(=O)c2c(oc3c(=O)c(CCCCCCCCCCC)c(O)c(=O)c3n2-c2ccc(N(C)C)cc2)c1=O |  | 50.5 µM | 56.3 µM | 42.9 µM | 38.5 µM | 47.2 |  |  | 37.9 µM | 
CCN1C(=NCCO)NS(=O)(=O)c2ccccc21 | > 100 µM |  |  |  |  |  |  |  |  | 
CC1(C)O[C@@H]2C[C@H]3[C@@H]4C[C@H](F)C5=CC(=O)C=C[C@]5(C)[C@@]4(F)[C@@H](O)C[C@]3(C)[C@]2(C(=O)CO)O1 | > 100 µM |  |  |  |  |  |  |  |  | 
Cc1c2c(c(C)c3c1[nH]c1ccccc13)CN(C)CC2 |  | > 100 µM | 34.3 µM | > 100 µM | 41.6 µM | 28.2 | 30.7 µM | 89.7 |  | 
NC(=O)NC1C(C(=O)O)N(Cc2ccccc2)C(=O)N1Cc1ccccc1 (stereo not drawn) |  | > 100 µM |  |  | > 100 µM | > 100 | > 100 µM |  | > 100 µM | 
O=C(O)c1c(Br)c(Br)c(Br)c(Br)c1C1c2ccc(O)cc2Oc2cc(O)ccc21 | > 100 µM |  |  |  |  |  |  |  |  | 
COc1ccc(C(=O)C#Cc2c[nH]c(=O)[nH]c2=O)cc1 |  | 24.6 µM | 30.4 µM | > 50.1 µM | 22.8 µM | 12.2 | 21.9 µM | 34.1 |  | 
CC1OC(CC(=O)O)CC2=C1C(=O)c1c(O)cccc1C2=O (stereo not drawn) | 0.518 µM | 0.0781 µM | 0.594 µM | 3.88 µM | 1.2 µM | 0.218 | 0.213 µM | 3.01 | 0.324 µM | 
COCCOCCOCCOc1cccc2c1C(=O)c1cccc(OCCOCCOCCOC)c1C2=O |  | > 100 µM | > 100 µM | > 100 µM | > 100 µM | > 100 | > 100 µM | > 100 | > 100 µM | 
CN(C)c1cccc(F)c1C(=O)NC(=O)Nc1ccc(Cl)cc1 | 0.762 µM |  |  |  |  |  |  |  |  | 
CC1=Nc2c([nH]c(=S)[nH]c2=O)NC(c2c(Cl)cccc2Cl)C1 (stereo not drawn) | 1.99 µM | 5.85 µM | 4.4 µM | 30.2 µM | 13.6 µM | 10.2 | 3.17 µM | 22.5 | 10.9 µM | 
O=C1OC(=O)C2C3C=CC(C12)C1C2C=CC2C31 (stereo not drawn) |  |  | > 100 µM | > 100 µM | > 100 µM | > 100 | > 100 µM | > 100 | > 100 µM | 
O=C(NCCCl)SCCO |  | > 100 µM | > 100 µM |  | > 100 µM | > 100 | > 100 µM | > 100 |  | 
COc1cccc(N2C(=O)C3C4C=C5c6ccccc6N(c6ccccc6)C5(C3C2=O)[C@H]2C(=O)N(c3cccc(OC)c3)C(=O)[C@@H]42)c1 (stereo partly drawn) |  | > 100 µM | > 100 µM | > 100 µM | > 100 µM | > 100 | > 100 µM | > 100 | > 100 µM | 
COC(=O)Cc1cc(=O)[nH]c2c1C(=O)CCC2 |  | > 100 µM |  | > 100 µM |  | > 100 |  |  | > 100 µM | 
CCOC(=O)Nc1cc2ccccc2c(N=Nc2ccccc2)c1O | > 100 µM |  |  |  |  |  |  |  |  | 
CC([O-])=C1C(=O)c2ccccc2C1=O.CC([O-])=C1C(=O)c2ccccc2C1=O.CC[O-].CC[O-].[Ti+4] |  | > 100 µM | > 100 µM | > 100 µM | > 100 µM | > 100 |  | > 100 |  | GI50 (DLD-1 colon): > 100 µM; GI50 (DMS 273 small cell lung): > 100 µM; GI50 (HOP-18 NSCLC): > 100 µM; GI50 (KM20L2 colon): > 100 µM; GI50 (LXFL 529 NSCLC): 87.5 µM; GI50 (RXF-631 renal): > 100 µM
O=C1CCCCC12CCC/C2=N\O (stereo not drawn) |  | > 100 µM | > 100 µM | > 100 µM | > 100 µM | > 100 | > 100 µM | > 100 |  | 

Reference: PubChem BioAssay (NCI)
